The values that follow come from article PMC9632241 (Antiviral Research, 2022).

The IC50 is the concentration at which inhibition is half-maximal. Low readings indicate inhibition by little substance, high ones a need for much substance.

The target of the assay is SARS-CoV-1 M^pro (Severe acute respiratory syndrome-related coronavirus, UniProt P0C6U8). The assay can be described thus: biochemical.

Regarding `CCOC(=O)/C=C/[C@H](C[C@@H]1CCNC1=O)NC(=O)[C@@H](CC(=O)[C@@H](NC(=O)c1cc(C)on1)C(C)C)Cc1ccc(F)cc1` [rupintrivir, 4-{2-(4-fluoro-benzyl)-6-methyl-5-[(5-methyl-isoxazole-3-carbonil)-amino]-4-oxo-heptanoylamino}-5-(2-oxo-pyrrolidin-3-yl)-pentanoicacidethylester], the IC50 was determined as 66 µM.
